We go through twelve molecules from ChEMBL document CHEMBL2417444, “Synthesis and study of 1-ethyl-3-carbohydrazide and 3-[1-oxo-2-hydrazino-3-{p-toluenesulfon}]quinolone derivatives against bacterial infections” (2013).

Assay [1] concerns Salmonella typhi. As to the kind of experiment: Ratio of norfloxacin MIC to compound MIC against Salmonella typhi. The class given is functional, Salmonella enterica subsp. enterica serovar Typhi.
Another assay concerns Staphylococcus aureus. As to the kind of experiment: Antibacterial activity against Staphylococcus aureus by disc diffusion method. The assay is classed as functional. (A growth-free zone around the sample is the usual read-out of agar diffusion tests.)
The test system of another assay is Escherichia coli. Put plainly: Antibacterial activity against enterotoxigenic Escherichia coli by disc diffusion method. The assay is classed as functional.
The test system of assay [2] is Salmonella typhi. Put plainly: Antibacterial activity against Salmonella typhi by disc diffusion method. The conditions noted are these: Salmonella enterica. The class given is functional, Salmonella enterica subsp. enterica serovar Typhi.
A further assay has as its system Pseudomonas aeruginosa. As to the kind of experiment: Antibacterial activity against Pseudomonas aeruginosa by disc diffusion method. The class given is functional.

Converted amounts (≈) assume the structure as drawn.

What is called MIC is the smallest concentration in the dilution series that meets the test's criterion for growth inhibition. Regarding `CCn1cc(C(=O)NN)c(=O)c2cc(F)ccc21`, the Ratio with Salmonella typhi [1] was 4. Further, the minimal inhibitory concentration (MIC) in the assay with Staphylococcus aureus worked out at 0.0625 µg/mL (≈ 0.251 µM); against Escherichia coli, 0.125 µg/mL (≈ 0.502 µM); with Salmonella typhi [2], 0.0625 µg/mL (≈ 0.251 µM); in the assay on Pseudomonas aeruginosa it was 0.0625 µg/mL (≈ 0.251 µM).

Turning to `CCn1cc(C(=O)NNS(=O)(=O)c2ccc(C)cc2)c(=O)c2cc(F)ccc21`, the Ratio in the assay with Salmonella typhi [1] is recorded as 4. In addition, the MIC in the assay with Staphylococcus aureus, against Escherichia coli, against Salmonella typhi [2] and against Pseudomonas aeruginosa was 0.0625 µg/mL (≈ 0.155 µM) throughout.

Consider `CCn1cc(C(=O)NN)c(=O)c2ccc(Cl)cc21`, for which, in the assay on Salmonella typhi [1], the Ratio was 4. Further, the MIC against Staphylococcus aureus, against Escherichia coli, against Salmonella typhi [2] and against Pseudomonas aeruginosa was 0.0625 µg/mL (≈ 0.235 µM) each time.

For `CCn1cc(C(=O)NN)c(=O)c2ccccc21`, the Ratio with Salmonella typhi [1] is reported as 4. The MIC in the assay with Staphylococcus aureus, with Escherichia coli, with Salmonella typhi [2] and in the assay on Pseudomonas aeruginosa was 0.0625 µg/mL (≈ 0.27 µM) in each case.

In the case of `CCn1cc(C(=O)NN)c(=O)c2cc(F)c(Cl)cc21`, the Ratio in the assay on Salmonella typhi [1] is on record as 4. In addition, the MIC in the assay on Staphylococcus aureus, in the assay on Escherichia coli, in the assay with Salmonella typhi [2] and in the assay with Pseudomonas aeruginosa was 0.0625 µg/mL (≈ 0.22 µM) in each case.

As to `CCn1cc(C(=O)NN)c(=O)c2cc(Cl)ccc21`, the Ratio with Salmonella typhi [1] turned out to be 4. Moreover, the minimum inhibitory concentration (MIC) with Staphylococcus aureus was 0.0625 µg/mL (≈ 0.235 µM); with Escherichia coli it was 0.25 µg/mL (≈ 0.941 µM); against Salmonella typhi [2] it was 0.0625 µg/mL (≈ 0.235 µM); against Pseudomonas aeruginosa it was 0.0625 µg/mL (≈ 0.235 µM).

As to `CCn1cc(C(=O)NNS(=O)(=O)c2ccc(C)cc2)c(=O)c2ccccc21`, the Ratio in the assay on Salmonella typhi [1] was determined as 4. In addition, the minimal inhibitory concentration (MIC) against Staphylococcus aureus was found to be 0.0625 µg/mL (≈ 0.162 µM); against Escherichia coli, 0.125 µg/mL (≈ 0.324 µM); with Salmonella typhi [2], 0.0625 µg/mL (≈ 0.162 µM); with Pseudomonas aeruginosa, 0.0625 µg/mL (≈ 0.162 µM).

As to `O=C(O)c1cn(C2CC2)c2cc(N3CCNCC3)c(F)cc2c1=O` [CIPROFLOXACIN], the MIC against Staphylococcus aureus, in the assay on Escherichia coli, against Salmonella typhi [2] and in the assay with Pseudomonas aeruginosa was 0.0625 µg/mL (≈ 0.189 µM) in each case.

Consider `CCn1cc(C(=O)NNS(=O)(=O)c2ccc(C)cc2)c(=O)c2cc(F)c(Cl)cc21`, for which, in the assay with Salmonella typhi [1], the Ratio was determined as 4. Also, the minimum inhibitory concentration (MIC) in the assay on Staphylococcus aureus, in the assay with Escherichia coli, in the assay with Salmonella typhi [2] and in the assay on Pseudomonas aeruginosa was 0.0625 µg/mL (≈ 0.143 µM) throughout.

`CCn1cc(C(=O)NNS(=O)(=O)c2ccc(C)cc2)c(=O)c2cc(Cl)ccc21`: the Ratio in the assay with Salmonella typhi [1] came to 4. The minimum inhibitory concentration (MIC) against Staphylococcus aureus, in the assay with Escherichia coli, against Salmonella typhi [2] and against Pseudomonas aeruginosa was 0.0625 µg/mL (≈ 0.149 µM) in each case.

`CCn1cc(C(=O)O)c(=O)c2cc(F)c(N3CCNCC3)cc21` [NORFLOXACIN]: the minimum inhibitory concentration (MIC) came out at 0.0625 µg/mL (≈ 0.196 µM) against Staphylococcus aureus, 0.0625 µg/mL (≈ 0.196 µM) in the assay with Escherichia coli, 0.25 µg/mL (≈ 0.783 µM) in the assay with Salmonella typhi [2] and 0.0625 µg/mL (≈ 0.196 µM) with Pseudomonas aeruginosa.

Consider `CCn1cc(C(=O)NNS(=O)(=O)c2ccc(C)cc2)c(=O)c2ccc(Cl)cc21`, for which the Ratio in the assay on Salmonella typhi [1] was found to be 2. Also, the minimal inhibitory concentration (MIC) against Staphylococcus aureus came out at 0.0625 µg/mL (≈ 0.149 µM); against Escherichia coli it was 0.0625 µg/mL (≈ 0.149 µM); in the assay on Salmonella typhi [2], 0.125 µg/mL (≈ 0.298 µM); against Pseudomonas aeruginosa, 0.0625 µg/mL (≈ 0.149 µM).
